Biological target: abnormal prion protein (Ovis aries, UniProt P23907)
Format: biochemical, sheep

Sequence of abnormal prion protein (P23907 25-233 limits assumed): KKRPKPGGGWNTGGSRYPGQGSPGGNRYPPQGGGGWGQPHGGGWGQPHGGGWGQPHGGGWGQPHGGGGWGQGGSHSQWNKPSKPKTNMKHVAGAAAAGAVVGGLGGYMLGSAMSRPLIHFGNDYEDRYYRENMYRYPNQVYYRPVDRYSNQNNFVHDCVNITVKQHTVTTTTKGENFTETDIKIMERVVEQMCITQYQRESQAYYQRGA

CC(C)C[C@H](N)C(=O)O [leucine]
suppression of proliferation of abnormal prion protein in vitro (leucine 15 mg/mL, PMCA): effectively suppressed proliferation of abnormal prion protein
bands of PK resistant fragments after PMCA (Western blotting) (leucine final concentration 15 mg/mL, up to 10 cycles of incubation-sonication, PK 50 μg/mL): no prominent bands were formed

Reference: patent US20070129438A1 (priority 2002, published 2007)
